Positions count from the first letter of the chain named.
Tests used:
FLT3-D835Y = target: T1, FLT3-D835Y (Homo sapiens, UniProt P36888, D835Y); assay: FLT3-D835Y biochemical kinase assay (AlphaScreen)
T1 construct: purchased Invitrogen PV3967
T1 sequence (P36888 27-993 D835Y): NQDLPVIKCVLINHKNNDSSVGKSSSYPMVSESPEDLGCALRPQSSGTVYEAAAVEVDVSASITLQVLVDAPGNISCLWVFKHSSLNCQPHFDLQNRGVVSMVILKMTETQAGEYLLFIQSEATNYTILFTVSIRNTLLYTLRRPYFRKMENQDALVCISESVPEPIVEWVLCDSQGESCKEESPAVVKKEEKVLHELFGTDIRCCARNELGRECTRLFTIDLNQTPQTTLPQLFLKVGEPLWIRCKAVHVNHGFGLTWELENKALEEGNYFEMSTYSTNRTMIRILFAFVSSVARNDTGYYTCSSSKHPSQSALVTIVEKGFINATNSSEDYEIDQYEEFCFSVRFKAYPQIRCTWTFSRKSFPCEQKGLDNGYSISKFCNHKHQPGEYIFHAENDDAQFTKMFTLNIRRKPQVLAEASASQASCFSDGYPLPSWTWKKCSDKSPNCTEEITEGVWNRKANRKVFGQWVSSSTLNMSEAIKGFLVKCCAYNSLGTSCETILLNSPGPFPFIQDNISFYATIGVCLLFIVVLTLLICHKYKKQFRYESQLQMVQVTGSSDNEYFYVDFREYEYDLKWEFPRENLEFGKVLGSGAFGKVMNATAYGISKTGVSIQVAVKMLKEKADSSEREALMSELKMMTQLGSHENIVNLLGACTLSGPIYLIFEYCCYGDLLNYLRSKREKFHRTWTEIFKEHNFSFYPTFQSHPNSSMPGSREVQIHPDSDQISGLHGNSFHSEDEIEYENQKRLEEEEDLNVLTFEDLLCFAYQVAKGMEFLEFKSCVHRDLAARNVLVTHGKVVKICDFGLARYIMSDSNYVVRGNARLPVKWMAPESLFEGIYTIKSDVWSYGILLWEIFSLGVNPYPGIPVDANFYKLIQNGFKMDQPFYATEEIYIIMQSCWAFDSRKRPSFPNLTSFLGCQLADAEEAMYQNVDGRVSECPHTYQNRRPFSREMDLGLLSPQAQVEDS
Method in brief: (§1)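 IC50 values reflect loss of AlphaScreen proximity signal (excitation 680 nm, emission 580 nm) from tyrosine phosphorylation of a biotinylated poly(Glu4-Tyr) substrate at 30 nM. ATP was 10 μM for the D835Y mutant and 100 μM for ITD. Detection used PY20 acceptor beads.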

c-Kit = c-Kit (Homo sapiens, UniProt P10721); assay: c-Kit biochemical assay (per US 2007/0032519)
Experimental: The following Table 2 provides data indicating FLT3 ITD, FLT3 D835Y, and KIT biochemical activity, and BaF3 FLT3 ITD/F69L cellular inhibitory activity for exemplary compounds described in this disclosure. In the table below, activity is provided as follows: +++=0.0001<IC50<1 μM; ++=1 μM<IC50<10 μM, +=10 μM<IC50<200 μM. Assays for the biochemical activity of c-Kit and FMS were conducted according to those assays described in US Patent Application Publication number US 2007/0032519, the disclosure of which is hereby incorporated by reference in its entirety.

FLT3-ITD = target: T2, FLT3-ITD (Homo sapiens, UniProt P36888); assay: FLT3-ITD biochemical kinase assay (AlphaScreen)
T2 construct: FLT3-ITD; Invitrogen #PV6190
T2 sequence (P36888 1-993): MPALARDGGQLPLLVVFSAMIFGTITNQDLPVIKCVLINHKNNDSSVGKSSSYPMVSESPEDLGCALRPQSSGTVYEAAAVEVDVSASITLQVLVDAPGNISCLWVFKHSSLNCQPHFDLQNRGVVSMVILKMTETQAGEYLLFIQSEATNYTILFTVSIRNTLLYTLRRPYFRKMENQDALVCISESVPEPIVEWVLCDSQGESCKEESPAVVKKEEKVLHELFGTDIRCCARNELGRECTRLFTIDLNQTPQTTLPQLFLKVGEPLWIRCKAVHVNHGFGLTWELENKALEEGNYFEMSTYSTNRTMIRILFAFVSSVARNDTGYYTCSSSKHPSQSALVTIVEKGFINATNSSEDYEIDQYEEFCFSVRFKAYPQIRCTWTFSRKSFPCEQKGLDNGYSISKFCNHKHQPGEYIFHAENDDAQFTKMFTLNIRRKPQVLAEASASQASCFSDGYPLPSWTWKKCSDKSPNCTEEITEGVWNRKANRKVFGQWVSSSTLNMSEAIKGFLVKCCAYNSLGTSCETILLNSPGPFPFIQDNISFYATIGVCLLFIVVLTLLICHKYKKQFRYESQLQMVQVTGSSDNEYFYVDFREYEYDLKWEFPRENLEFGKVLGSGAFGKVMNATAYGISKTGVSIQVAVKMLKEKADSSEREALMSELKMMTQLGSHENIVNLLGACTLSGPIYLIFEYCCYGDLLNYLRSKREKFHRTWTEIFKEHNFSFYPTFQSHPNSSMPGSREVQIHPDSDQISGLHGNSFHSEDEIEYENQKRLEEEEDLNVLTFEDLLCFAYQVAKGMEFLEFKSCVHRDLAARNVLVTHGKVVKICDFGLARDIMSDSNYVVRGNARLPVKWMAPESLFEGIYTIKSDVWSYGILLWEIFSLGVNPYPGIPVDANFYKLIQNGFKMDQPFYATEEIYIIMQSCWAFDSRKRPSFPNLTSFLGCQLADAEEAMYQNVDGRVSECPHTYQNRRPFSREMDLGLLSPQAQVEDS
Method in brief: as §1

[1] = target: T3, BA/F3-FLT3-ITD + F691L cells (Homo sapiens, UniProt P36888, F691L, cells depend on it, form not given); assay: BA/F3-FLT3-ITD + F691L cell proliferation assay (CellTiter-Glo); format: cell-based, murine; conditions: BaF3 FLT3 ITD/F691L cells; read-out: Cell Activity (IC50 μM) BaF3_FLT3_ITD/F691L
T3 sequence (P36888 1-993 F691L): T2 sequence (P36888 1-993) with F691L
Source text: The FLT3 inhibitors may also be assessed using leukemia cell lines that express endogenous FLT3-ITD or cells that are engineered to express wild-type or mutant FLT3. The cells expressing endogenous FLT3 are dependent upon FLT3 catalytic activity for growth. For the engineered cells, murine BA/F3 cells were transfected with full-length FLT3 (either wild-type, or containing the ITD, D835Y, or F691L mutations, as noted). The parental BA/F3 cells are dependent upon Interleukin-3 (IL-3) for survival, and introduction of the FLT3 constructs renders these cells dependent upon FLT3 kinase activity when cultured in the absence of IL-3. Engineered BA/F3 cell growth assays can be performed in either the absence or presence of IL-3, to assess the compound inhibition of FLT3 or to detect the presence of off-target activity, respectively. Inhibitors of FLT3 kinase activity reduce or eliminate the FLT3 oncogenic signaling, resulting in reduced cell proliferation. This inhibition is measured as a function of compound concentration to assess IC50 values.
Cells were seeded at 1×10^4 cells per well of a 96 well cell culture plate in 50 μl of cell culture medium. Compounds were dissolved in DMSO, typically at a concentration of 5 mM and were serially diluted 1:3 for a total of eight points and added to the cells to final concentrations of 10, 3.3, 1.1, 0.37, 0.12, 0.041, 0.014 and 0.0046 μM in 100 μl cell culture medium (final concentration 0.2% DMSO). […] The cells were incubated at 37° C., 5% CO2 for three days. CellTiter-Glo Buffer (Promega Cell Viability Assay catalog #G7573) and substrate were equilibrated to room temperature, and enzyme/substrate Recombinant Firefly Luciferase/Beetle Luciferin was reconstituted. The cell plates were equilibrated to room temperature for 30 minutes, then lysed by addition of an equivalent volume of the Celltiter-Glo Reagent. The plate was mixed for 10 minutes on a plate shaker to lyse the cells. The plates were read on a Tecan M1000 using Luminescence protocol modified to read 0.1 s per well. The luminescence reading assesses the ATP content, which correlates directly with cell number such that the reading as a function of compound concentration was used to determine the IC50 value.

c-Kit, sequence (P10721 26-976): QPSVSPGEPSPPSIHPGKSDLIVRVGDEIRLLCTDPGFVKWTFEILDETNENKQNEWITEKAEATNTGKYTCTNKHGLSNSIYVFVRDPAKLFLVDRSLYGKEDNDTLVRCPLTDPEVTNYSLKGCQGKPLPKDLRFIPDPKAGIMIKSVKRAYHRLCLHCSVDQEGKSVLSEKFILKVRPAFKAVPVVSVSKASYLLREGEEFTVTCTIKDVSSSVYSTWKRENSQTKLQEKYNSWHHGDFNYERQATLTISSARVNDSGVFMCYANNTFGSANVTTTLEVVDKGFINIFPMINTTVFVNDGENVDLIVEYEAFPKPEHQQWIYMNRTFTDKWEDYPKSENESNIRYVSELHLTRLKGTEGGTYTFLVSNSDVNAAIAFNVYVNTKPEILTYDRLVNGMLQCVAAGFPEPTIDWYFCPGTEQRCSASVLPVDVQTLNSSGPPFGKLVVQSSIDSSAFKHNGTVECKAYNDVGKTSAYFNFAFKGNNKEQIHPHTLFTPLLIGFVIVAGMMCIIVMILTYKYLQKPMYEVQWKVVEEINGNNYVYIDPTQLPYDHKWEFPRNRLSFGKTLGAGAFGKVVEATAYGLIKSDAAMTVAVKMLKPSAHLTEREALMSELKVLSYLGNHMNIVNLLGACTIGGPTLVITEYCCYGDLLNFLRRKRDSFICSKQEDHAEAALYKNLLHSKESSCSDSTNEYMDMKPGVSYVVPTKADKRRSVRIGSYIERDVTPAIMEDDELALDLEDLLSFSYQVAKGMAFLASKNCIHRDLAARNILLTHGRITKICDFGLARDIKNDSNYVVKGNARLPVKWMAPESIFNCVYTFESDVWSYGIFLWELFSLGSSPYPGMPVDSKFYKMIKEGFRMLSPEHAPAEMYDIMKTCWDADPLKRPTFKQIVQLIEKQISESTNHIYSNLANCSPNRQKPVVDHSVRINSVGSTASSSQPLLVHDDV

| Structure (SMILES) | IC50 (FLT3-D835Y) [µM] | IC50 (c-Kit) [µM] | IC50 (FLT3-ITD) [µM] | GI50 [1] [µM] |
| --- | --- | --- | --- | --- |
| CS(=O)(=O)Nc1ccc(-c2cnc3[nH]cc(-c4ccc5ncsc5c4)c3n2)cc1 [P-076, N-[4-[7-(1,3-benzothiazol-6-yl)-5H-pyrrolo[2,3-b]pyrazin-2-yl]phenyl]methanesulfonamide] | 0.0001 to 1 | 1 to 10 | – | – |
| CNS(=O)(=O)c1ccc(-c2cnc3[nH]cc(-c4ccc5ncsc5c4)c3n2)cc1 [P-078, 4-[7-(1,3-benzothiazol-6-yl)-5H-pyrrolo[2,3-b]pyrazin-2-yl]-N-methyl-benzenesulfonamide] | 0.0001 to 1 | 10 to 200 | – | – |
| COc1cnc2[nH]cc(-c3cc4nc[nH]c4cc3C)c2c1 [P-026, 5-methoxy-3-(6-methyl-1H-benzimidazol-5-yl)-1H-pyrrolo[2,3-b]pyridine] | 1 to 10 | 10 to 200 | – | – |
| Cc1cc2[nH]cnc2cc1-c1c[nH]c2ncccc12 [P-025, 6-methyl-5-(1H-pyrrolo[2,3-b]pyridin-3-yl)-1H-benzimidazole] | 1 to 10 | 10 to 200 | – | – |
| COc1cc(-c2cnc3[nH]cc(-c4ccc5ncsc5c4)c3n2)ccn1 [P-075, 6-[2-(2-methoxy-4-pyridyl)-5H-pyrrolo[2,3-b]pyrazin-7-yl]-1,3-benzothiazole] | 0.0001 to 1 | 10 to 200 | – | – |
| COc1ccc(-c2cnc3[nH]cc(-c4ccc5ncsc5c4)c3n2)cn1 [P-077, 6-[2-(6-methoxy-3-pyridyl)-5H-pyrrolo[2,3-b]pyrazin-7-yl]-1,3-benzothiazole] | 0.0001 to 1 | 1 to 10 | – | – |

More lines, now with the values ahead:

| IC50 (FLT3-D835Y) [µM] | IC50 (c-Kit) [µM] | IC50 (FLT3-ITD) [µM] | GI50 [1] [µM] | Structure (SMILES) |
| --- | --- | --- | --- | --- |
| 0.0001 to 1 | 1 to 10 | – | – | Cn1cc(-c2cnc3[nH]cc(-c4ccc5ncn(C)c5c4)c3c2)ccc1=O [P-118, 1-methyl-5-[3-(3-methylbenzimidazol-5-yl)-1H-pyrrolo[2,3-b]pyridin-5-yl]pyridin-2-one] |
| 0.0001 to 1 | 10 to 200 | – | – | COc1cnc2[nH]cc(-c3ccc4ncn(C5CCNC5)c4c3)c2c1 (stereo not drawn) [P-067, 5-methoxy-3-(3-pyrrolidin-3-ylbenzimidazol-5-yl)-1H-pyrrolo[2,3-b]pyridine] |
| 0.0001 to 1 | 1 to 10 | – | – | COc1cnc2[nH]cc(-c3ccc4ncn(Cc5ccccc5)c4c3)c2c1 [P-073, 1-benzyl-6-(5-methoxy-1H-pyrrolo[2,3-b]pyridin-3-yl)benzimidazole] |
| 0.0001 to 1 | 1 to 10 | – | – | COc1cnc2[nH]cc(-c3ccc4ncn(C5CCCCC5)c4c3)c2c1 [P-072, 1-cyclohexyl-6-(5-methoxy-1H-pyrrolo[2,3-b]pyridin-3-yl)benzimidazole] |
| – | – | 0.0001 to 1 | 0.0001 to 1 | CN1CCN(c2ccc(-c3cnc4[nH]cc(-c5ccc6ncn(C7CCCNC7)c6c5)c4n3)cn2)CC1 (stereo not drawn) [P-334, 2-[6-(4-methylpiperazin-1-yl)-3-pyridyl]-7-[3-(3-piperidyl)benzimidazol-5-yl]-5H-pyrrolo[2,3-b]pyrazine] |
| 0.0001 to 1 | 10 to 200 | – | – | COc1cnc2[nH]cc(-c3ccc4ncn(C5CCNCC5)c4c3)c2c1 [P-071, 5-methoxy-3-[3-(4-piperidyl)benzimidazol-5-yl]-1H-pyrrolo[2,3-b]pyridine] |
